The record followed here is patent US9260485B2 (priority 2009, dated 2016).

Like-named read-outs stand apart in the source and are kept apart here. Square brackets hold non-standard residues; d marks the D form. Peptide text beside a SMILES is read from it. ξ: configuration not given here. ξLac(3-iPr) = CC(C)CC(O)C(=O)O; NMeL = CN[C@@H](CC(C)C)C(=O)O

The subject of data set [1] is SK-OV-3 ovarian cancer cell line. The data set can be described thus: In vitro cytotoxicity, SRB method. It counts as cell-based, Human. How it is done: (§1) Known cyclic hexadepsipeptides (beauvericin, enniatin H, I, and MK1688) and the compounds of Chemical Formulas 1 and 2 were evaluated for in vitro cytotoxicity against various non-multidrug-resistant human cancer cell lines and multidrug-resistant cancer cell lines using the SRB method.
(§2) Human non-small-cell lung cancer cell line (A549) ovarian cancer cell line (SK-OV-3), skin cancer cell line (SK-MEL-2), and uterine sarcoma cell line MES-SA and its multi-drug resistant subline (MES-SA/DX5) were purchased from the American Type Culture Collection (USA). Colorectal carcinoma cancer cell line (HCT-15) was provided by the National Cancer Institute (NCI). HCT15/CL02 cell lines were established from HCT15 cells by continuous and stepwise exposure of the cells to doxorubicin in the Korea Research Institute of Chemical Technology (Korea).
A general note: The SRB assay estimates cell density from bound dye.

Data set [2] deals with MES-SA/DX5 multi-drug resistant subline. The data set can be described thus: In vitro cytotoxicity, SRB method. It counts as cell-based, Human. The procedure:
as §1, §2

In data set [3] the test system is SK-MEL-2 skin cancer cell line. Nature of the data set: In vitro cytotoxicity, SRB method. It counts as cell-based, Human. The procedure: as §1, §2
Data set [4] has as its system HCT15/CL02 cell line (doxorubicin-selected from HCT15). The data set can be described thus: In vitro cytotoxicity, SRB method. It counts as cell-based, Human. How it is done:
as §1, §2

For data set [5], the system named is HCT15 colorectal carcinoma cancer cell line. The data set can be described thus: In vitro cytotoxicity, SRB method. It counts as cell-based, Human. How it is done: as §1, §2
Data set [6] has as its system A549 non-small-cell lung cancer cell line. Nature of the data set: In vitro cytotoxicity, SRB method. It counts as cell-based, Human. How it is done:
as §1, §2

The test system of data set [7] is MES-SA uterine sarcoma cell line. Nature of the data set: In vitro cytotoxicity, SRB method. It counts as cell-based, Human. Particulars: read-out: EC50 (concentration inhibiting cell growth in vitro by 50%). How it is done: as §1, §2
The test system of another data set is Penicillium citrinum. Nature of the data set: Anti-fungal activity, paper disc on mycelia on PDA. It counts as cell-based. Particulars: 1 mM; 25° C., 48 hr. How it is done: (§3) Inhibitory activity was performed against four fungus strains (Mucor rouxii, Penicillium citrinum, Fusarium oxysporum, and Aspergillus oryzae).
(§4) Drops of 1 and 10 mM solutions of compounds of Chemical Formulas 1 and 2 in methanol were loaded onto sterile paper discs (8 mm diameter) and the methanol solvent was evaporated under a hood. The paper discs were placed on fungus mycelia grown on potato dextrose agar. After incubation at 25° C. for 48 hr, clear zones around the discs were observed and their diameters were measured. A filter treated with pure methanol was used as a negative control.

The next data set concerns Fusarium oxysporum. Nature of the data set: Anti-fungal activity, paper disc on mycelia on PDA. It counts as cell-based. How it is done: as §3, §4
Another data set relates to Aspergillus oryzae. Nature of the data set: Anti-fungal activity, paper disc on mycelia on PDA. The following applies: 1 mM; 25° C., 48 hr. It counts as cell-based. The procedure: as §3, §4
In another data set the test system is Mucor rouxii. The data set can be described thus: Anti-fungal activity, paper disc on mycelia on PDA. It counts as cell-based. The procedure:
as §3, §4

The test system of data set [8] is MDR cell lines (MES-SA/DX5 and HCT15/CL02). Nature of the data set: Multidrug resistance-reversing activity, summary in words. It counts as cell-based, Human. The procedure: The cyclic pentadepsipeptides of Chemical Formulas 1 and 2 were analyzed for MDR-reversing activity by comparing inhibitory activities against multidrug-resistant cancer cell lines (MES-SA/DX5 and HCT15/CL02) with those against non-multidrug-resistant cancer cell lines (MES-SA and HCT15). In this regard, the effects of the cyclic pentadepsipeptides of Chemical Formulas 1 and 2 on paclitaxel's cytotoxicity against MDR tumor cells were measured (Table 6). […].
Therefore, the N-methyl group in the cyclic pentadepsipeptide may be a factor crucial for the expression of the MDR reversal activity. […]

The subject of data set [9] is Pseudomonas aeruginosa ATCC 9026. The data set can be described thus: Anti-bacterial activity, paper disc clear zone. It counts as cell-based. Particulars: 0.1, 0.5, 1 and 2 mM on paper disc; 37° C., 24 hr. The procedure: (§5) Assays for antibacterial activity were performed with 3 Gram-positive (Listeria monocytogenes ATCC 14028, Staphylococcus aureus ATCC 35556 and Bacillus cereus ATCC 13061) and 3 Gram-negative bacteria (Escherichia coli ATCC 8739, Pseudomonas aeruginosa ATCC 9026 and Salmonella typhimurium ATCC 14028). Each of the compounds of Chemical Formulas 1 and 2 was dissolved in different concentrations (0.1, 0.5, 1, and 2 mM) in dimethyl sulfoxide (DMSO). The solutions were applied to a sterile paper disc (5 mm diameter), followed by evaporating the DMSO solvent. Bacteria was inoculated at a density of 1×10^7 CFU/ml on Tryptic soy agar (TSA) and then, the paper disc was placed on the bacteria-inoculated agars. After incubation at 37° C. for 24 hr, the clear zone around each disc was observed and its diameter was measured.

For data set [10], the system named is Bacillus cereus ATCC 13061. Nature of the data set: Anti-bacterial activity, paper disc clear zone. The following applies: 0.1, 0.5, 1 and 2 mM on paper disc; 37° C., 24 hr. It counts as cell-based. The procedure: as §5
Data set [11] concerns Staphylococcus aureus ATCC 35556. The data set can be described thus: Anti-bacterial activity, paper disc clear zone. It counts as cell-based. The following applies: 0.1, 0.5, 1 and 2 mM on paper disc; 37° C., 24 hr. How it is done: as §5
In data set [12] the test system is Listeria monocytogenes ATCC 14028. Nature of the data set: Anti-bacterial activity, paper disc clear zone. It counts as cell-based. Particulars: 0.1, 0.5, 1 and 2 mM on paper disc; 37° C., 24 hr. How it is done: as §5
Data set [13] concerns Escherichia coli ATCC 8739. Nature of the data set: Anti-bacterial activity, paper disc clear zone. It counts as cell-based. The following applies: 0.1, 0.5, 1 and 2 mM on paper disc; 37° C., 24 hr. The procedure:
as §5

Data set [14] concerns Salmonella typhimurium ATCC 14028. The data set can be described thus: Anti-bacterial activity, paper disc clear zone. It counts as cell-based. Particulars: 0.1, 0.5, 1 and 2 mM on paper disc; 37° C., 24 hr. The procedure: as §5
Setting [15] is: read-out: EC50 (concentration inhibiting cell growth in vitro by 50%), SK-OV-3.
The mark [16] stands for this setting: read-out: EC50 (concentration inhibiting cell growth in vitro by 50%), MES-SA/DX5.
[17] abbreviates: read-out: EC50 (concentration inhibiting cell growth in vitro by 50%), SK-MEL-2.
Setting [18] is: read-out: EC50 (concentration inhibiting cell growth in vitro by 50%), HCT15/CL02.
The mark [19] stands for this setting: read-out: EC50 (concentration inhibiting cell growth in vitro by 50%), HCT15.
[20] abbreviates: read-out: EC50 (concentration inhibiting cell growth in vitro by 50%), A549.
[21] abbreviates: Homo sapiens, SK-OV-3, read-out: EC50 (concentration inhibiting cell growth in vitro by 50%).
The mark [22] stands for this setting: Homo sapiens, MES-SA/Dx5, read-out: EC50 (concentration inhibiting cell growth in vitro by 50%).
Where [23] appears, read: Homo sapiens, SK-MEL-2, read-out: EC50 (concentration inhibiting cell growth in vitro by 50%).
[24] abbreviates: Homo sapiens, A549, read-out: EC50 (concentration inhibiting cell growth in vitro by 50%).
The mark [25] stands for this setting: Homo sapiens, HCT-15, read-out: EC50 (concentration inhibiting cell growth in vitro by 50%).

For the compound `CC[C@H](C)[C@H]1OC(=O)[C@H](C(C)C)N(C)C(=O)[C@@H](C(C)C)OC(=O)[C@H](C(C)C)N(C)C(=O)[C@@H](C(C)C)OC(=O)[C@H](C(C)C)N(C)C1=O` [EN H, enniatin H], the EC50 in data set [1] (setting [15]) was 1710 ± 30 nM; in [2] (setting [16]), 14900 ± 590 nM; in data set [3] (setting [17]), 1770 ± 30 nM; in data set [4] (setting [18]), 17700 ± 490 nM; in data set [5] (setting [19]) it was 16700 ± 960 nM; in data set [6] (setting [20]) it was 1840 ± 110 nM. In data set [7], the EC50 was found to be 12900 ± 230 nM.
With beauvericin, the EC50 in [1] (setting [15]) amounted to 1390 ± 90 nM; in [2] (setting [16]), 1340 ± 30 nM; in data set [3] (setting [17]) it was 1470 ± 90 nM; in data set [4] (setting [18]), 1660 ± 80 nM; in data set [5] (setting [19]), 1530 ± 90 nM; in data set [6] (setting [20]), 1430 ± 160 nM. Further, the EC50 in [7] was 1290 ± 20 nM.
In the case of `CC[C@H](C)[C@H]1OC(=O)[C@H](C(C)C)N(C)C(=O)[C@@H](C(C)C)OC(=O)[C@H](C(C)C)N(C)C(=O)[C@@H]([C@@H](C)CC)OC(=O)[C@H](C(C)C)N(C)C1=O` [EN I, enniatin I], the EC50 was determined as 490 ± 30 nM in data set [1] (setting [15]); 4900 ± 270 nM in data set [2] (setting [16]); 530 ± 60 nM in data set [3] (setting [17]); 5880 ± 210 nM in data set [4] (setting [18]); 5560 ± 220 nM in data set [5] (setting [19]); 500 ± 40 nM in [6] (setting [20]). In addition, the EC50 in data set [7] came to 3940 ± 30 nM.
With `COc1cccc2c1C(=O)c1c(O)c3c(c(O)c1C2=O)C[C@@](O)(C(=O)CO)C[C@@H]3O[C@H]1C[C@H](N)[C@H](O)[C@H](C)O1` [Doxorubicin, doxorubicin], the EC50 in [1] (setting [21]) stood at 60 ± 10 nM; in data set [2] (setting [22]), 1030 ± 310 nM; in [3] (setting [23]) it was 40 ± 10 nM; in data set [4] (Homo sapiens, HCT-15, read-out: EC50 (concentration inhibiting cell growth in vitro by 50%), HCT15/CL02) it was 4480 ± 2150 nM; in data set [5] (Homo sapiens, HCT-15, read-out: EC50 (concentration inhibiting cell growth in vitro by 50%), HCT15) it was 10 ± 1 nM; in data set [6] (setting [24]), 30 ± 10 nM. Besides, the EC50 in data set [7] (Homo sapiens) was 10 ± 0.1 nM.
Regarding `CC(C)CC1OC(=O)[C@H](Cc2ccccc2)NC(=O)[C@H](CC(C)C)NC(=O)[C@H](C(C)C)NC(=O)[C@H](CC(C)C)N(C)C1=O` (stereo partly shown) [Com. 2, neo-Nmethylsansalvamide] (cyclo(F[ξLac(3-iPr)][NMeL]VL)), the “Inhibitory activity on mycelial growth” value with Penicillium citrinum was “No inhibitory activities were detected”; in the data set with Fusarium oxysporum (1 mM, 25° C., 48 hr), “No inhibitory activities were detected”; in the data set with Aspergillus oryzae, “No inhibitory activities were detected”; in the data set on Mucor rouxii (1 mM, 25° C., 48 hr), “No inhibitory activities were detected”. The “Antifungal test, overall result” value in the data set with Fusarium oxysporum was “inhibitory against Mucor rouxii, and Fusarium oxysporum, weakly”; in the data set on Mucor rouxii, “inhibitory against Mucor rouxii, and Fusarium oxysporum, weakly”. The “Clear zone / inhibitory effect on mycelium” value in the data set with Fusarium oxysporum (10 mM, 25° C., 48 hr) is on record as “exhibited an inhibitory effect at 10 mM, weakly”. Also, the Clear zone result in the data set with Mucor rouxii (10 mM, 25° C., 48 hr) is “no clear zones were observed”. Besides, the “Hyphal growth near the paper disc” value in the data set with Mucor rouxii (10 mM, 25° C., 48 hr) is recorded as “hyphal growth of Mucor rouxii was reduced”. Moreover, the “Effect on the cytotoxicity of paclitaxel against MDR cell lines” value in [8] is “remarkably enhanced the cytotoxicity of paclitaxel”. The “Inhibitory activity (clear zone around disc)” value in data set [9], in [10], in [11], in data set [12], in data set [13] and in data set [14] was “Neither the compound of Chemical Formula 1 nor Chemical Formula 2 showed inhibitory activity” in each case. The EC50 in [1] (setting [21]) is 11200 ± 1230 nM; in [2] (setting [22]) it was 11400 ± 300 nM; in [3] (setting [23]) it was 10000 ± 530 nM; in data set [4] (setting [25]) it was 13500 ± 1190 nM; in [5] (setting [25]), 12500 ± 710 nM; in [6] (setting [24]), 10700 ± 150 nM. The EC50 in data set [7] (Homo sapiens) is 14000 ± 740 nM.
Consider `CCC(C)C[C@H]1OC(=O)[C@H](C(C)C)N(C)C(=O)[C@@H](CC(C)C)OC(=O)[C@H](C(C)C)N(C)C(=O)[C@@H](C(C)C)OC(=O)[C@H](C(C)C)N(C)C1=O` (stereo partly shown) [EN MK1688, Enniatin MK1688], for which the EC50 stood at 460 ± 30 nM in data set [1] (setting [15]); 13600 ± 790 nM in data set [2] (setting [16]); 630 ± 10 nM in data set [3] (setting [17]); 16400 ± 840 nM in data set [4] (setting [18]); 14000 ± 540 nM in [5] (setting [19]); 450 ± 40 nM in data set [6] (setting [20]). The EC50 in data set [7] is 13600 ± 1050 nM.
